Test results published in patent US9695155B2, “Herbicidal substituted pyrimidinyloxy benzene compounds” (E. I. DU PONT DE NEMOURS AND COMPANY, priority 2013, dated 2017).

Legend:
barnyardgrass [1] = experiment: Test A preemergence; assay type: in vivo, Echinochloa crus-galli; conditions: for Barnyardgrass plant response rating (0 to 100 scale, 0 is no effect, 100 is complete control): 125 g ai/ha; for Barnyardgrass plant response rating: 500 g ai/ha, 0 to 100 scale where 0 is no effect and 100 is complete control
Outline: (§1)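 Compounds in non-phytotoxic solvent with surfactant applied as soil spray preemergence, or postemergence to plants 2-10 cm at one- to two-leaf stage, in loam/sand. After approximately 10 days in greenhouse, injury rated visually versus untreated controls, 0 (no effect) to 100 (complete control).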

large (Lg) crabgrass [2] = experiment: Test A preemergence; assay type: in vivo, Digitaria sanguinalis; conditions: for Crabgrass, Large plant response rating (0 to 100 scale): 125 g ai/ha; for Crabgrass, Large plant response rating: 500 g ai/ha, 0 to 100 scale where 0 is no effect and 100 is complete control
Outline: as §1

giant foxtail [3] = experiment: Test A preemergence; assay type: in vivo, Setaria faberii; conditions: for Foxtail, Giant plant response rating (0 to 100 scale): 125 g ai/ha; for Foxtail, Giant plant response rating: 500 g ai/ha, 0 to 100 scale where 0 is no effect and 100 is complete control
Outline: as §1

morningglory [4] = experiment: Test A preemergence; assay type: in vivo, Ipomoea spp.; conditions: for Morningglory plant response rating (0 to 100 scale): 125 g ai/ha; for Morningglory plant response rating: 500 g ai/ha, 0 to 100 scale where 0 is no effect and 100 is complete control
Outline: as §1

pigweed [5] = experiment: Test A preemergence; assay type: in vivo, Amaranthus retroflexus; conditions: for Pigweed plant response rating (0 to 100 scale): 125 g ai/ha; for Pigweed plant response rating: 500 g ai/ha, 0 to 100 scale where 0 is no effect and 100 is complete control
Outline: as §1

velvetleaf [6] = experiment: Test A preemergence; assay type: in vivo, Abutilon theophrasti; conditions: for Velvetleaf plant response rating (0 to 100 scale): 125 g ai/ha; for Velvetleaf plant response rating: 500 g ai/ha, 0 to 100 scale where 0 is no effect and 100 is complete control
Outline: as §1

wheat [7] = experiment: Test A preemergence; assay type: in vivo, Triticum aestivum; conditions: for Wheat plant response rating (0 to 100 scale): 125 g ai/ha; for Wheat plant response rating: 500 g ai/ha, 0 to 100 scale where 0 is no effect and 100 is complete control
Outline: as §1

corn [8] = experiment: Test A preemergence; assay type: in vivo, Zea mays; conditions: for Corn plant response rating (0 to 100 scale): 125 g ai/ha; for Corn plant response rating: 500 g ai/ha, 0 to 100 scale where 0 is no effect and 100 is complete control
Outline: as §1

barnyardgrass [9] = experiment: Test A postemergence; assay type: in vivo, Echinochloa crus-galli; conditions: 0 to 100 scale where 0 is no effect and 100 is complete control; for Barnyardgrass plant response rating: 125 g ai/ha; for Plant response rating, Barnyardgrass: 500 g ai/ha
Outline: as §1

large (Lg) crabgrass [10] = experiment: Test A postemergence; assay type: in vivo, Digitaria sanguinalis; conditions: 0 to 100 scale where 0 is no effect and 100 is complete control; for Crabgrass, Large plant response rating: 125 g ai/ha; for Plant response rating, Crabgrass, Large: 500 g ai/ha
Outline: as §1

giant foxtail [11] = experiment: Test A postemergence; assay type: in vivo, Setaria faberii; conditions: 0 to 100 scale where 0 is no effect and 100 is complete control; for Foxtail, Giant plant response rating: 125 g ai/ha; for Plant response rating, Foxtail, Giant: 500 g ai/ha
Outline: as §1

morningglory [12] = experiment: Test A postemergence; assay type: in vivo, Ipomoea spp.; conditions: 0 to 100 scale where 0 is no effect and 100 is complete control; for Morningglory plant response rating: 125 g ai/ha; for Plant response rating, Morningglory: 500 g ai/ha
Outline: as §1

pigweed [13] = experiment: Test A postemergence; assay type: in vivo, Amaranthus retroflexus; conditions: 0 to 100 scale where 0 is no effect and 100 is complete control; for Pigweed plant response rating: 125 g ai/ha; for Plant response rating, Pigweed: 500 g ai/ha
Outline: as §1

velvetleaf [14] = experiment: Test A postemergence; assay type: in vivo, Abutilon theophrasti; conditions: 0 to 100 scale where 0 is no effect and 100 is complete control; for Velvetleaf plant response rating: 125 g ai/ha; for Plant response rating, Velvetleaf: 500 g ai/ha
Outline: as §1

wheat [15] = experiment: Test A postemergence; assay type: in vivo, Triticum aestivum; conditions: 0 to 100 scale where 0 is no effect and 100 is complete control; for Wheat plant response rating: 125 g ai/ha; for Plant response rating, Wheat: 500 g ai/ha
Outline: as §1

corn [16] = experiment: Test A postemergence; assay type: in vivo, Zea mays; conditions: 0 to 100 scale where 0 is no effect and 100 is complete control; for Corn plant response rating: 125 g ai/ha; for Plant response rating, Corn: 500 g ai/ha
Outline: as §1

rice [17] = experiment: Test B flooded paddy test; assay type: in vivo, Oryza sativa; conditions: Flood, 250 g ai/ha; 0 to 100 scale where 0 is no effect and 100 is complete control
Outline: (§2)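 2-leaf stage plants; pots flooded to 3 cm, compound added to paddy water, depth maintained. Greenhouse 13–15 d. Visual rating vs untreated controls, 0 (no effect) to 100 (complete control); dash = no result.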

sedge, umbrella [18] = experiment: Test B flooded paddy test; assay type: in vivo, Cyperus difformis; conditions: Flood, 250 g ai/ha; 0 to 100 scale where 0 is no effect and 100 is complete control
Outline: as §2

Heteranthera limosa = experiment: Test B flooded paddy test; assay type: in vivo; conditions: Flood, 250 g ai/ha; 0 to 100 scale where 0 is no effect and 100 is complete control
Outline: as §2

barnyardgrass [19] = experiment: Test B flooded paddy test; assay type: in vivo, Echinochloa crus-galli; conditions: Flood, 250 g ai/ha; 0 to 100 scale where 0 is no effect and 100 is complete control
Outline: as §2

rice [20] = experiment: Test C flooded paddy test; assay type: in vivo, Oryza sativa; conditions: Flood, scale 0 to 100 (0 no effect, 100 complete control), 13 to 15 days
Description: (§3) At time of treatment, test pots were flooded to 3 cm above the soil surface, treated by application of test compounds directly to the paddy water, and then maintained at that water depth for the duration of the test. Treated plants and controls were maintained in a greenhouse for 13 to 15 days, after which time all species were compared to controls and visually evaluated. […] A dash (-) response means no test result.

sedge, umbrella [21] = experiment: Test C flooded paddy test; assay type: in vivo, Cyperus difformis; conditions: Flood, scale 0 to 100 (0 no effect, 100 complete control), 13 to 15 days
Description: as §3

ducksalad = experiment: Test C flooded paddy test; assay type: in vivo, Heteranthera limosa; conditions: Flood, scale 0 to 100 (0 no effect, 100 complete control), 13 to 15 days
Description: as §3

barnyardgrass [22] = experiment: Test C flooded paddy test; assay type: in vivo, Echinochloa crus-galli; conditions: Flood, scale 0 to 100 (0 no effect, 100 complete control), 13 to 15 days
Description: as §3

COc1cnc(Oc2ccccc2-n2cc(Br)cn2)nc1 [Compound 234]
Barnyardgrass plant response rating (0 to 100 scale, 0 is no effect, 100 is complete control) (barnyardgrass [1]): 20 | Barnyardgrass plant response rating (barnyardgrass [1]): 100 | Crabgrass, Large plant response rating (0 to 100 scale) (large (Lg) crabgrass [2]): 90 | Crabgrass, Large plant response rating (large (Lg) crabgrass [2]): 100 | Foxtail, Giant plant response rating (0 to 100 scale) (giant foxtail [3]): 60 | Foxtail, Giant plant response rating (giant foxtail [3]): 90 | Morningglory plant response rating (0 to 100 scale) (morningglory [4]): 0 | Morningglory plant response rating (morningglory [4]): 100 | Pigweed plant response rating (0 to 100 scale) (pigweed [5]): 90 | Pigweed plant response rating (pigweed [5]): 100 | Velvetleaf plant response rating (0 to 100 scale) (velvetleaf [6]): 40 | Velvetleaf plant response rating (velvetleaf [6]): 100 | Wheat plant response rating (0 to 100 scale) (wheat [7]): 0 | Wheat plant response rating (wheat [7]): 0 | Corn plant response rating (0 to 100 scale) (corn [8]): 0 | Corn plant response rating (corn [8]): 90 | Barnyardgrass plant response rating (barnyardgrass [9]): 20 | Plant response rating, Barnyardgrass (barnyardgrass [9]): 70 | Crabgrass, Large plant response rating (large (Lg) crabgrass [10]): 20 | Plant response rating, Crabgrass, Large (large (Lg) crabgrass [10]): 60 | Foxtail, Giant plant response rating (giant foxtail [11]): 30 | Plant response rating, Foxtail, Giant (giant foxtail [11]): 70 | Morningglory plant response rating (morningglory [12]): 40 | Plant response rating, Morningglory (morningglory [12]): 60 | Pigweed plant response rating (pigweed [13]): 100 | Plant response rating, Pigweed (pigweed [13]): 100 | Velvetleaf plant response rating (velvetleaf [14]): 70 | Plant response rating, Velvetleaf (velvetleaf [14]): 100 | Wheat plant response rating (wheat [15]): 20 | Plant response rating, Wheat (wheat [15]): 20 | Corn plant response rating (corn [16]): 20 | Plant response rating, Corn (corn [16]): 30 | Plant response rating, Rice (rice [17]): 20 | Plant response rating, Sedge, Umbrella (sedge, umbrella [18]): 90 | Plant response rating, Ducksalad (Heteranthera limosa): 90 | Plant response rating, Barnyardgrass (barnyardgrass [19]): 20 | Plant response rating, Rice (rice [20]; 31 g ai/ha): 0 | Plant response rating, Rice (rice [20]; 62 g ai/ha): 0 | Plant response rating, Rice (rice [20]; 125 g ai/ha): 0 | Plant response rating, Rice (rice [20]; 250 g ai/ha): 0 | Plant response rating, Sedge, Umbrella (sedge, umbrella [21]; 31 g ai/ha): 0 | Plant response rating, Sedge, Umbrella (sedge, umbrella [21]; 62 g ai/ha): 0 | Plant response rating, Sedge, Umbrella (sedge, umbrella [21]; 125 g ai/ha): 0 | Plant response rating, Sedge, Umbrella (sedge, umbrella [21]; 250 g ai/ha): 40 | Plant response rating, Ducksalad (ducksalad; 31 g ai/ha): 0 | Plant response rating, Ducksalad (ducksalad; 62 g ai/ha): 0 | Plant response rating, Ducksalad (ducksalad; 125 g ai/ha): 0 | Plant response rating, Ducksalad (ducksalad; 250 g ai/ha): 30 | Plant response rating, Barnyardgrass (barnyardgrass [22]; 31 g ai/ha): 0 | Plant response rating, Barnyardgrass (barnyardgrass [22]; 62 g ai/ha): 0 | Plant response rating, Barnyardgrass (barnyardgrass [22]; 125 g ai/ha): 0 | Plant response rating, Barnyardgrass (barnyardgrass [22]; 250 g ai/ha): 0

FC(F)c1cccc(Oc2ncc(Cl)cn2)c1-n1cc(I)cn1 [Compound 184]
Barnyardgrass plant response rating (0 to 100 scale, 0 is no effect, 100 is complete control) (barnyardgrass [1]): 30 | Barnyardgrass plant response rating (barnyardgrass [1]): 100 | Crabgrass, Large plant response rating (0 to 100 scale) (large (Lg) crabgrass [2]): 100 | Crabgrass, Large plant response rating (large (Lg) crabgrass [2]): 100 | Foxtail, Giant plant response rating (0 to 100 scale) (giant foxtail [3]): 100 | Foxtail, Giant plant response rating (giant foxtail [3]): 100 | Morningglory plant response rating (0 to 100 scale) (morningglory [4]): 0 | Morningglory plant response rating (morningglory [4]): 90 | Pigweed plant response rating (0 to 100 scale) (pigweed [5]): 100 | Pigweed plant response rating (pigweed [5]): 100 | Velvetleaf plant response rating (0 to 100 scale) (velvetleaf [6]): 20 | Velvetleaf plant response rating (velvetleaf [6]): 60 | Wheat plant response rating (0 to 100 scale) (wheat [7]): 0 | Wheat plant response rating (wheat [7]): 30 | Corn plant response rating (0 to 100 scale) (corn [8]): 20 | Corn plant response rating (corn [8]): 20 | Barnyardgrass plant response rating (barnyardgrass [9]): 60 | Plant response rating, Barnyardgrass (barnyardgrass [9]): 90 | Crabgrass, Large plant response rating (large (Lg) crabgrass [10]): 70 | Plant response rating, Crabgrass, Large (large (Lg) crabgrass [10]): 80 | Foxtail, Giant plant response rating (giant foxtail [11]): 70 | Plant response rating, Foxtail, Giant (giant foxtail [11]): 80 | Morningglory plant response rating (morningglory [12]): 60 | Plant response rating, Morningglory (morningglory [12]): 90 | Pigweed plant response rating (pigweed [13]): 100 | Plant response rating, Pigweed (pigweed [13]): 100 | Velvetleaf plant response rating (velvetleaf [14]): 80 | Plant response rating, Velvetleaf (velvetleaf [14]): 90 | Wheat plant response rating (wheat [15]): 30 | Plant response rating, Wheat (wheat [15]): 90 | Corn plant response rating (corn [16]): 20 | Plant response rating, Corn (corn [16]): 70 | Plant response rating, Rice (rice [17]): 10 | Plant response rating, Sedge, Umbrella (sedge, umbrella [18]): 95 | Plant response rating, Ducksalad (Heteranthera limosa): 100 | Plant response rating, Barnyardgrass (barnyardgrass [19]): 0 | Plant response rating, Rice (rice [20]; 31 g ai/ha): 0 | Plant response rating, Rice (rice [20]; 62 g ai/ha): 0 | Plant response rating, Rice (rice [20]; 125 g ai/ha): 0 | Plant response rating, Rice (rice [20]; 250 g ai/ha): 0 | Plant response rating, Sedge, Umbrella (sedge, umbrella [21]; 31 g ai/ha): 0 | Plant response rating, Sedge, Umbrella (sedge, umbrella [21]; 62 g ai/ha): 0 | Plant response rating, Sedge, Umbrella (sedge, umbrella [21]; 125 g ai/ha): 50 | Plant response rating, Sedge, Umbrella (sedge, umbrella [21]; 250 g ai/ha): 75 | Plant response rating, Ducksalad (ducksalad; 31 g ai/ha): 0 | Plant response rating, Ducksalad (ducksalad; 62 g ai/ha): 30 | Plant response rating, Ducksalad (ducksalad; 125 g ai/ha): 30 | Plant response rating, Ducksalad (ducksalad; 250 g ai/ha): 75 | Plant response rating, Barnyardgrass (barnyardgrass [22]; 31 g ai/ha): 0 | Plant response rating, Barnyardgrass (barnyardgrass [22]; 62 g ai/ha): 0 | Plant response rating, Barnyardgrass (barnyardgrass [22]; 125 g ai/ha): 0 | Plant response rating, Barnyardgrass (barnyardgrass [22]; 250 g ai/ha): 0
